Consider 41 molecules from US20110183991A1, “5HT7 RECEPTOR LIGANDS AND COMPOSITIONS COMPRISING THE SAME” (LABORATORIOS DEL DR. ESTEVE, S.A., priority 2008, published 2011).

For the assay, the target named is T1, Cloned Human Serotonin Receptor, Subtype 7 (h5HT7), expressed in CHO cells (Homo sapiens, UniProt P34969).
T1 construct: purchased PerkinElmer 6120512; host or cells: CHO cells
As to the kind of experiment: Radioligand binding assay, [125I]LSD, cloned human 5HT7 receptor on Flashplate. The settings on record: for inhibition at 1 µM: read-out: %-Inhib. (10^−6 M). As for the experimental part:
The protocol assay was essentially the recommended protocol in the Technical Data Sheet by PerkinEmer Life and Analytical Sciences. The Mass membrane protein/well was typically 12 μg and the Receptor/well was about 9-10 fmoles. The Flashplate were let equilibrate at room temperature for one hour before the addition of the components of the assay mixture. The binding buffer was: 50 mM Tris-HCl, pH 7.4, containing 10 mM MgCl2, 0.5 mM EDTA and 0.5% BSA. […] Nonspecific binding was determined with 50 μM of Clozapine. The assay volume was 25 μl. TopSeal-A were applied onto Flashplate microplates and they were incubated at room temperature for 240 minutes in darkness.

Where [1] appears, read: compound at 10^−6 M, radioligand [125I]LSD 0.82 nM.
Setting [2] is: 5HT7 binding experiments on the screening selection.

Like-named read-outs stand apart in the source and are kept apart here.

T1 sequence (P34969 whole entry): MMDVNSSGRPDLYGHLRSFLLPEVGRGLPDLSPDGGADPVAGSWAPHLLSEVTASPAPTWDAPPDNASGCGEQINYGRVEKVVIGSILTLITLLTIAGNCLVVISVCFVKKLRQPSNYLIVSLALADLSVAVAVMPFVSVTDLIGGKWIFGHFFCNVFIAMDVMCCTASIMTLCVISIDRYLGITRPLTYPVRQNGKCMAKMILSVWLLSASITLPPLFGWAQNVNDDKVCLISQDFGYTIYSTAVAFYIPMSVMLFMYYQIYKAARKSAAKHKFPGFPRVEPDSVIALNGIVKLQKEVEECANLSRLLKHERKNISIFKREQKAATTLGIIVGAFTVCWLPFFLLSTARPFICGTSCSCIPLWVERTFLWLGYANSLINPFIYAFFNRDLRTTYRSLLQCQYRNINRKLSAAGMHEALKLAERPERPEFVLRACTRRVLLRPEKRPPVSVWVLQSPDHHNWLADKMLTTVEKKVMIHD

Consider `Cn1cc(CN2CCN(c3ccccc3)CC2)c2ccccc21` [Ex 1, 1-methyl-3-((4-phenylpiperazin-1-yl)methyl)-1H-indole], for which the inhibition at 1 µM under setting [1] stood at 22.3%.
Same read-out and setting: the same measure for `Oc1cccc(N2CCN(Cc3ccc(OC(F)(F)F)cc3)CC2)c1` [Ex 2, 3-(4-(4-(trifluoromethoxy)benzyl)piperazin-1-yl)phenol]: 15.1%.
Take `c1ccc(OCCN2CCN(c3cccc4[nH]ccc34)CC2)cc1` [Ex 3, 4-(4-(2-phenoxyethyl)piperazin-1-yl)-1H-indole]: under setting [1], the inhibition at 1 µM was determined as 53.7%. For the same molecule, the IC50 (radioligand [125I]LSD 0.82 nM) worked out at 1940 nM.
Taken in the same sequence, the figures for `Fc1cc2c(c(CN3CCN(C4CCc5ccccc5C4)CC3)c1)OCOC2` (stereo not shown) [Ex 4, 1-((6-fluoro-4H-benzo[d][1,3]dioxin-8-yl)methyl)-4-(1,2,3,4-tetrahydronaphthalen-2-yl)piperazine] were 49% and 2330 nM.
Regarding `Cc1cc(NC(=O)CN2CCN(c3cccc4[nH]ccc34)CC2)n(C)n1` [Ex 5, 2-(4-(1H-indol-4-yl)piperazin-1-yl)-N-(1,3-dimethyl-1H-pyrazol-5-yl)acetamide], the inhibition at 1 µM under setting [1] turned out to be 14.3%.
The same measure, in the same setting: next, `CC[C@H](C)C(=O)N1CCN(Cc2cc(C(C)C)ccc2OC)CC1` [Ex 6, (S)-1-(4-(5-isopropyl-2-methoxybenzyl)piperazin-1-yl)-2-methylbutan-1-one]: 15%.
On to `N#CCCCN1CCN(c2cccc3[nH]ccc23)CC1` [Ex 7, 4-(4-(1H-indol-4-yl)piperazin-1-yl)butanenitrile], for which the inhibition at 1 µM amounted to 49.6%. Where the note is “radioligand [125I]LSD 0.82 nM”, this molecule yielded an IC50 of 713 nM.
For `COc1ccc(C(C)C)cc1CN1CCN(C(=O)c2ccsc2)CC1` [Ex 8, (4-(5-isopropyl-2-methoxybenzyl)piperazin-1-yl)(thiophen-3-yl)methanone], under setting [1], the inhibition at 1 µM worked out at 30.5%.
For `COc1ccc(C(C)C)cc1CN1CCN(C(=O)c2ccc(Br)cc2)CC1` [Ex 9, (4-bromophenyl)(4-(5-isopropyl-2-methoxybenzyl)piperazin-1-yl)methanone], the inhibition at 1 µM under setting [1] is 68.1%. The IC50 (radioligand [125I]LSD 0.82 nM) turned out to be 1790 nM.
As to `Cc1ccc(N2CCN(Cc3ccc(Cl)nc3)CC2)c(C)c1` [Ex 10, 1-((6-chloropyridin-3-yl)methyl)-4-(2,4-dimethylphenyl)piperazine], the inhibition at 1 µM under setting [1] was determined as 16.6%.
Take `COc1ccc(C(C)C)cc1CN1CCN(C(=O)Cc2c[nH]c3ccccc23)CC1` [Ex 11, 2-(1H-indol-3-yl)-1-(4-(5-isopropyl-2-methoxybenzyl)piperazin-1-yl)ethanone]: the inhibition at 1 µM was 16.3%.
In the case of `COc1ccc(CN2CCN(c3ccc(OC)c(OC)c3)CC2)c(OC)n1` [Ex 12, 1-(3,4-dimethoxyphenyl)-4-((2,6-dimethoxypyridin-3-yl)methyl)piperazine], the inhibition at 1 µM under setting [1] was -0.3%.
Still for that read-out and setting: next, `Cc1ccc(N2CCN(Cc3ccc(OC4CCCCO4)cc3)CC2)c(C)c1` (stereo not shown) [Ex 13, 1-(2,4-dimethylphenyl)-4-(4-(tetrahydro-2H-pyran-2-yloxy)benzyl)piperazine]: 12.1%.
As for `FC(F)(F)c1cccc(N2CCN(Cc3cccnc3Nc3ccccc3)CC2)c1` [Ex 14, N-phenyl-3-((4-(3-(trifluoromethyl)phenyl)piperazin-1-yl)methyl)pyridin-2-amine], the inhibition at 1 µM under setting [1] is 19.5%.
With `COc1ccc(CN2CCN(c3ccccc3OC(C)C)CC2)c(OC)n1` [Ex 15, 1-((2,6-dimethoxypyridin-3-yl)methyl)-4-(2-isopropoxyphenyl)piperazine], the IC50 came out at 82.2 nM and the inhibition at 1 µM was found to be 92.2%.
With `COc1ccc(CN2CCN(c3ccc(C)cc3C)CC2)c(OC)n1` [Ex 16, 1-((2,6-dimethoxypyridin-3-yl)methyl)-4-(2,4-dimethylphenyl)piperazine], under setting [1], the inhibition at 1 µM was 8.8%.
Same read-out and setting: the same measure for `Cn1cc(CN2CCN(c3cccc(C(F)(F)F)c3)CC2)c(=O)n(C)c1=O` [Ex 17, 1,3-dimethyl-5-((4-(3-(trifluoromethyl)phenyl)piperazin-1-yl)methyl)pyrimidine-2,4(1H,3H)-dione]: 28.5%.
The same measure, in the same setting: next, `COc1ccc(CN2CCN(c3ccc(Cl)cc3)CC2)c(OC)n1` [Ex 18, 1-(4-chlorophenyl)-4-((2,6-dimethoxypyridin-3-yl)methyl)piperazine]: 12.3%.
With `c1cc(N2CCN(Cc3ccc(OC4CCCCO4)cc3)CC2)c2cc[nH]c2c1` (stereo not shown) [Ex 19, 4-(4-(4-(tetrahydro-2H-pyran-2-yloxy)benzyl)piperazin-1-yl)-1H-indole], the inhibition at 1 µM under setting [1] worked out at 59.5%. For the same molecule, the IC50 (radioligand [125I]LSD 0.82 nM) stood at 1140 nM.
In the same order, the values of `Cc1cccc(-n2c(=O)c(CN3CCN(c4cccc5[nH]ccc45)CC3)cc3cccnc32)c1` [Ex 20, 3-((4-(1H-indol-4-yl)piperazin-1-yl)methyl)-1-m-tolyl-1,8-naphthyridin-2(1H)-one] are 51.9% and 423 nM.
Turning to `COc1ccc(CN2CCN(c3cccc(C(F)(F)F)c3)CC2)c(OC)n1` [Ex 21, 1-((2,6-dimethoxypyridin-3-yl)methyl)-4-(3-(trifluoromethyl)phenyl)piperazine], the inhibition at 1 µM under setting [1] was 9.4%.
In the case of `COc1ccc(CN2CCN(c3cccc4[nH]ccc34)CC2)c(OC)n1` [Ex 22, 4-(4-((2,6-dimethoxypyridin-3-yl)methyl)piperazin-1-yl)-1H-indole], the inhibition at 1 µM under setting [1] is 114%. Also, the IC50 (radioligand [125I]LSD 0.82 nM) was 109 nM.
Turning to `COc1ccc(C(C)C)cc1CN1CCN(c2ccc(Cl)cc2)CC1` [Ex 23, 1-(4-chlorophenyl)-4-(5-isopropyl-2-methoxybenzyl)piperazine], under setting [1], the inhibition at 1 µM was found to be 35.9%.
The same measure, in the same setting: the same measure for `COc1ccc(C(C)C)cc1CN1CCN(c2ccc(C)cc2C)CC1` [Ex 24, 1-(2,4-dimethylphenyl)-4-(5-isopropyl-2-methoxybenzyl)piperazine]: 41.6%.
For the molecule `Clc1ccc(CN2CCN(c3cccc4[nH]ccc34)CC2)cn1` [Ex 25, 4-(4-((6-chloropyridin-3-yl)methyl)piperazin-1-yl)-1H-indole], the IC50 worked out at 328 nM and the inhibition at 1 µM is 66.8%.
With `O=[N+]([O-])c1ccc(N2CCN(Cc3cccnc3Nc3ccccc3)CC2)cc1` [Ex 26, 3-((4-(4-nitrophenyl)piperazin-1-yl)methyl)-N-phenylpyridin-2-amine], under setting [1], the inhibition at 1 µM is -4.6%.
As for `COc1ccc(C(C)C)cc1CN1CCN(c2ncccn2)CC1` [Ex 27, 2-(4-(5-isopropyl-2-methoxybenzyl)piperazin-1-yl)pyrimidine], under setting [1], the inhibition at 1 µM came out at 48.9%.
On the same count and under the same terms, next, `c1ccc2[nH]c(CN3CCN(c4cccc5[nH]ccc45)CC3)nc2c1` [Ex 28, 2-((4-(1H-indol-4-yl)piperazin-1-yl)methyl)-1H-benzo[d]imidazole]: 28.8%.
With `c1ccc(CN2CCN(c3cccc4[nH]ccc34)CC2)cc1` [Ex 30, 4-(4-benzylpiperazin-1-yl)-1H-indole], under setting [1], the inhibition at 1 µM turned out to be 83.1%. Moreover, the IC50 (radioligand [125I]LSD 0.82 nM) came out at 339 nM.
Take `Fc1ccccc1CN1CCN(c2cccc3[nH]ccc23)CC1` [Ex 31, 4-(4-(2-fluorobenzyl)piperazin-1-yl)-1H-indole]: the inhibition at 1 µM is 82.6%. Moreover, the IC50 (radioligand [125I]LSD 0.82 nM) was 460 nM.
Taken in the same sequence, the figures for `c1ccc2cc(CN3CCN(c4cccc5[nH]ccc45)CC3)ccc2c1` [Ex 32, 4-(4-(naphthalen-2-ylmethyl)piperazin-1-yl)-1H-indole] were 78.3% and 760 nM.
With `Clc1ccccc1CN1CCN(c2cccc3[nH]ccc23)CC1` [Ex 33, 4-(4-(2-chlorobenzyl)piperazin-1-yl)-1H-indole], the inhibition at 1 µM came to 78.2%. This molecule also registered an IC50 (radioligand [125I]LSD 0.82 nM) of 223 nM.
Consider `Clc1ccc(CN2CCN(c3cccc4[nH]ccc34)CC2)cc1Cl` [Ex 34, 4-(4-(3,4-dichlorobenzyl)piperazin-1-yl)-1H-indole], for which the inhibition at 1 µM stood at 54.7%. For the same molecule, the half-inhibitory concentration (IC50) (radioligand [125I]LSD 0.82 nM) was found to be 1240 nM.
For `Clc1ccc(CN2CCN(c3cccc4[nH]ccc34)CC2)c(Cl)c1` [Ex 35, 4-(4-(2,4-dichlorobenzyl)piperazin-1-yl)-1H-indole], under setting [1], the inhibition at 1 µM came to 51.3%.
The same measure, in the same setting: the same measure for `O=[N+]([O-])c1cccc(CN2CCN(c3cccc4[nH]ccc34)CC2)c1` [Ex 36, 4-(4-(3-nitrobenzyl)piperazin-1-yl)-1H-indole]: 41.5%.
Take `CC(C)Oc1ccccc1N1CCN(Cc2ccc(Cl)nc2)CC1` [b, 1-((6-chloropyridin-3-yl)methyl)-4-(2-isopropoxyphenyl)piperazine]: the “affinity for the 5HT7 receptor (in words)” value (“affinity” below) under setting [2] was “good affinity”.
Regarding `CCOc1ccccc1N1CCN(Cc2c[nH]c3ccccc23)CC1` [c, 3-((4-(2-ethoxyphenyl)piperazin-1-yl)methyl)-1H-indole], the “affinity” value is given as “good affinity”.
`CN(C)S(=O)(=O)c1ccc2[nH]cc(CCN)c2c1` [compound a, 3-(2-aminoethyl)-N,N-dimethyl-1H-indole-5-sulfonamide]: the “affinity” value was “good affinity”.
Turning to `O=c1[nH]c2ccccc2n1C1CCN(CCOc2ccccc2)CC1` [compound i, 1-(1-(2-phenoxyethyl)piperidin-4-yl)-1H-benzo[d]imidazol-2(3H)-one], the “affinity” value under setting [2] is “good affinity”.
Still for that read-out and setting: next, `COc1ccccc1N1CCN(CCC(O)c2ccccc2)CC1` (stereo not shown) [d, 3-(4-(2-methoxyphenyl)piperazin-1-yl)-1-phenylpropan-1-ol]: “good affinity”.
With `CC(C)Oc1ccccc1N1CCN(Cc2ccc(-n3ccnc3)cc2)CC1` [e, 1-(4-(1H-imidazol-1-yl)benzyl)-4-(2-isopropoxyphenyl)piperazine], the “affinity” value was “good affinity”.
